Data from article PMC5931594, “Substrate-bound outward-open structure of a Na^+-coupled sialic acid symporter reveals a new Na^+ site” (Nature Communications, 2018).
Where two headings read alike, the source gives them in different places.

Molecular target: T1, SiaT (Proteus mirabilis, UniProt B4EZY7)
T1 construct: full-length, C-terminal HRV 3C site-GFP-8xHis tag cleaved by 3C protease; reconstituted in proteoliposomes for uptake
Experiment: microscale thermophoresis, label-free
Format: binding
Details: PBS, 0.0174% DDM

T1 sequence (B4EZY7 whole entry): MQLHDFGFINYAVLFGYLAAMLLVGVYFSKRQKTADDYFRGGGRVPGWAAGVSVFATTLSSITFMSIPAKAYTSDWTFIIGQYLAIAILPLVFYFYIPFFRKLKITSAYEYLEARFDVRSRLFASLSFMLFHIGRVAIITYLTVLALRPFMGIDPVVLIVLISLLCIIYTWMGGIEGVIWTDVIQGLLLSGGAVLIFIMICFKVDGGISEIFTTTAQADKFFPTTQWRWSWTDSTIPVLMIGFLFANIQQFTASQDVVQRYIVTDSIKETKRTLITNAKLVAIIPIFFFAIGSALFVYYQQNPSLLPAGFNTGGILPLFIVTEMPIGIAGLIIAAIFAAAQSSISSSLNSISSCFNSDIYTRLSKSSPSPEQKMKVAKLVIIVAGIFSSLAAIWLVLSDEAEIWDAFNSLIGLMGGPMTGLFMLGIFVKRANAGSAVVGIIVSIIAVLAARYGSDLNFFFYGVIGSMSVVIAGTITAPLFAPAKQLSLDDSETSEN

SMILES	Kd [µM]	Kd (read-out: Kd^Neu5Gc) [µM]
O=C(O)C1(O)C[C@H](O)[C@@H](O)[C@H]([C@H](O)[C@H](O)CO)O1 (some centres unmarked) [ketodeoxynonulosonic acid]	> 10000	–
O=C(CO)N[C@H]1[C@H]([C@H](O)[C@H](O)CO)OC(O)(C(=O)O)C[C@@H]1O (some centres unmarked) [N-glycolylneuraminic acid]	–	85 ± 2
